Assay results reported in publication PMC10152543 (Journal of medicinal chemistry, 2022).

Assay: Parallel artificial membrane permeability assay
Assay type: in vitro ADME
Details: result in words

Structure (SMILES) | permeability by PAMPA
Cc1ccc(CNC(=O)[C@@H]2Cc3cccc(c3)Oc3cccc(c3)C[C@H](N)C(=O)N[C@@H](CCc3ccccc3)C(=O)N2)cc1 [CP1, (5S,8S,11S)-11-amino-N-(4-methylbenzyl)-7,10-dioxo-8-phenethyl-2-oxa-6,9-diaza-1,3(1,3)-dibenzenacyclododecaphane-5-carboxamide] | undetectable
O=C(NC1CCCC1)[C@@H]1CCCCOc2cccc(c2)C[C@H](N2CCCC2=O)C(=O)N[C@@H](CCN2CCOCC2)C(=O)N1 [TDI8304] | modest
